# Target: T1, CaD27 (Cyanobacterium aponinum, UniProt K9Z764)
# T1 construct: gene Cyan10605_2981; thioredoxin fusion (pThio-Dan1-CaD27(-cTP)) in E. coli BL21(DE3) with pGro7 chaperones; crude lysate; Pfam PF13225 family
# T1 sequence (K9Z764 1-216): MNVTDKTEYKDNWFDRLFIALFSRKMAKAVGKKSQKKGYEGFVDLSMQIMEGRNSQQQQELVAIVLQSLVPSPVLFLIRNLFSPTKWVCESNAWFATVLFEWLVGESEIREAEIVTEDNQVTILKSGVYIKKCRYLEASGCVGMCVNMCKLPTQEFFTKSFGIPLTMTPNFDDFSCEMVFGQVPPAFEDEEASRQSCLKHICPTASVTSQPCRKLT
# Test: isomerization assay, UHPLC
# Type: biochemical
# Conditions: crude lysate of E. coli expressing thioredoxin-CaD27, compared with thioredoxin control
SMILES,"isomerization assay, UHPLC (products 9-cis- and 13-cis-beta-carotene, also tested in beta-carotene-accumulating E. coli)","isomerization assay, UHPLC (product 9-cis-beta-carotene)"
CC1=C(/C=C/C(C)=C/C=C/C(C)=C/C=C/C=C(C)/C=C/C=C(C)/C=C/C2=C(C)CCCC2(C)C)C(C)(C)CCC1 [all-trans-β-carotene],"we only detected the isomerization of all-trans-β-carotene into 9-cis, and 13-cis-β-carotene",
CC1=C(/C=C/C(C)=C/C=C/C(C)=C\C=C\C=C(C)\C=C\C=C(C)\C=C\C2=C(C)CCCC2(C)C)C(C)(C)CCC1 [13-cis-β-carotene],,thioredoxin-CaD27 converted 13-cis-β-carotene into 9-cis-β-carotene

# From PMC11449226, “Characterization of a β-carotene isomerase from the cyanobacterium Cyanobacteria aponinum” (Philosophical Transactions of the Royal Society B: …, 2024)
